# Measurements as given in US20190037899A1, “Intramolecular Trans-Sialidase” (THE INSTITUTE OF FOOD RESEARCH, priority 2016, published 2019).
# Several values for one entry are separate records, joined by “and”; a condition that tells them apart may be missing. Identical values can stand only once. Marks after values point to notes of the source that are not given here.
# B1: Ruminococcus gnavus ATCC 29149 sialidase RgNanH (intramolecular trans-sialidase, IT-sialidase), wild type, full length excluding signal sequence residues 1-25, … (protein)
# chain: QEAQTDVIEAVAEKKQDTESSSVPVLQKEGIEISEGTGYDLSKEPGAATVKALEQGTIVISYKTTSENAIQSLLSVGNGTKGNQDRHFHLYITNAGGVGMELRNTDGEFKYTLDCPAAVRGSYKGERVSNTVALKADKENKQYKLFANGELIATLDQEAFKFISDITGVDNVMLGGTMRQGTVAYPFGGSIERMQVYRDVLSDDELIAVTGKTIYAENIFYAGDATKSNYFRIPSLLALDSGTVIAAADARYGGTHDAKSKINTAFAKSTDGGKTWGQPTLPLKFDDYVAKNIDWPRDSVGKNVQIQGSASYIDPVLLEDKETHRVFLFADMMPAGIGSSNASVGSGFKEVDGKKYLKLHWKDDAAGTYDYSVRENGTIYNDTTNSATEYSVDGEYNLYKNGNAMLCKQYDYNFEGTKLLETQTDTDVNMNVFYKDADFKVFPTTYLAMKYSDDEGETWSDLQIVSTFKPEESKFLVLGPGVGKQIANGEHAGRLIVPLYSKSSAELGFMYSDDHGNNWTYVEADQNTGGATAEAQIVEMPDGSLKTYLRTGSGYIAQVMSTDGGETWSERVPLTEIATTGYGTQLSVINYSQPVDGKPAILLSAPNATNGRKNGKIWIGLISETGNSGKDKYSVDWKYCYSVDTPQMGYSYSCLTELPDGEIGLLYEKYDSWSRNELHLKNILKYERFNIDELKVQP
# Tests used:
# RgNanH [1] = assay: Specificity of RgNanH against sialylated oligosaccharides (HPAEC-PAD); type: biochemical, Ruminococcus gnavus ATCC 29149; design: key to Activity, RgNanH: +: Activity was defined as disappearance of the substrate peak and appearance of a lower molecular weight peak which could correspond to the desialylated substrate; conditions: for Activity, RgNanH: 1 mM substrate, 1 nM enzyme, 37° C., pH 6.5, overnight
# [2] = system: AkmNan0625 and AkmNan1835; assay: Specificity of AkmNan0625 and AkmNan1835 against sialylated oligosaccharides (HPAEC-PAD); type: biochemical, Akkermansia muciniphila; design: key to Activity, AkmNan0625 and AkmNan1835: +: Activity was defined as disappearance of the substrate peak and appearance of a lower molecular weight peak which could correspond to the desialylated substrate; conditions: for Activity, AkmNan0625 and AkmNan1835: 1 mM substrate, 1 nM enzyme, 37° C., pH 6.5, overnight
# Text: All chemicals were obtained from Sigma (St. Louis, US) unless otherwise stated. The Akkermansia muciniphila sialidases, termed here AkmNan0625 and AkmNan1835, were obtained by His-Tag overexpression of their genes (Amuc_0625 and Amuc_1835, respectively (van Passel, M. W. et al. The genome of Akkermansia muciniphila, a dedicated intestinal mucin degrader, and its use in exploring intestinal metagenomes. Plos One 6, e16876 (2011)) in E. coli BL21(DE3) and subsequent purification to homogeneity by immobilised metal affinity chromatography (IMAC) as described below. The sialylated oligosaccharides and OC were obtained from Carbosynth (Berks, UK).
# RgNanH [3] = assay: Kinetic analysis of RgNanH with sialylated substrates; conditions: 37° C., pH 6.5; for Ki: read-out: Ki (substrate inhibition)
# Method: For 4MU-Neu5Ac and 3′SL, the rate of hydrolysis without enzyme was not significant so raw data were used. However, for pNP-Neu5Ac the rate of hydrolysis without enzyme was significant so the rate with enzyme was corrected by the subtraction of the rate without enzyme at each concentration of substrate.
# Kinetic data were obtained from at least duplicate (usually triplicate) experiments, and the kinetic parameters were calculated by fitting the initial raw data to the Michaelis-Menten equation using a non-linear regression analysis program (Prism 6, GraphPad, San Diego, USA), error bars (standard error of the mean) are shown.
# [4] = target: T1, Ruminococcus gnavus ATCC 29149 sialidase RgNanH (intramolecular trans-sialidase, IT-sialidase), wild type, full length excluding signal sequence residues 1-25, (Mediterraneibacter gnavus, UniProt A7B557); conditions: 37° C., pH 6.5
# T1 sequence (A7B557 26-723): B1 chain
# Method: (§1) Substrate (a) 4MU-Neu5Ac or (b) PNP-Neu5Ac was incubated with RgNanH (0.22 mM and 0.43 nM respectively) at 37° C., pH 6.5 and the release of product measured using a plate-reader. (c) Inhibition of RgNanH (1.00 nM) incubated with 4MU-Neu5Ac (0.51 mM) by zanamivir (●), Neu5Ac2en (▪), Siastatin B (▴) and oseltamivir carboxylate (♦), the rates are normalised to a % of the uninhibited rate. [I] is the inhibitor concentration. (d) 3′SL was incubated with RgNanH (2.25 nM) and the release of product measured by HPAEC-PAD. Experiments were done at least in duplicate (usually triplicate) and the error bars show the standard error of the mean.
# RgNanH [5] = target: T2, RgNanH (Mediterraneibacter gnavus, UniProt A7B557); assay: Inhibition of RgNanH activity against 4MU-Neu5Ac by neuraminidase inhibitors; conditions: for Inhibition of RgNanH (in words): 4MU-Neu5Ac 0.51 mM, 1 nM enzyme, Neu5Ac 0-0.3 mM, Lac 0-1.5 mM
# T2 sequence (A7B557 26-723): B1 chain
# RgNanH [6] = target: T2, RgNanH; conditions: 1 mg/ml glycoprotein, 37° C., pH 6.5, overnight
# Method: Extracts (400 μL) were mixed with 200 μL of D2O and 20 μL of a solution of D2O containing 1 mM of TSP (sodium 3-(trimethylsilyl)-propionate-d4). Samples (500 μL) were transferred into a 5-mm NMR tube for spectral acquisition. The ^1H NMR spectra were recorded at 600 MHz on a Bruker Avance spectrometer (Bruker BioSpin GmbH, Rheinstetten, Germany) running Topspin 2.0 software and fitted with a cryoprobe and a 60-slot autosampler. Each ^1H NMR spectrum was acquired with 128 scans, a spectral width of 8,012.8 Hz, an acquisition time of 2.04 s, and a relaxation delay of 2.0 s. The “noesypr1d” presaturation sequence was used to suppress the residual water signal with a low-power selective irradiation at the water frequency during the recycle delay and a mixing time of 100 ms. Spectra were transformed with a 0.3-Hz line broadening, manually phased, baseline corrected, and referenced by setting the TSP methyl signal to 0 ppm.
# [7] = substrate: CC(=O)N[C@H]1[C@H]([C@H](O)[C@H](O)CO)O[C@@](Oc2ccc3c(C)cc(=O)oc3c2)(C(=O)O)C[C@@H]1O; assay: purified protein, by the assay type; conditions: other: 37° C., pH 6.5, * estimated value, ± standard error of the mean
# Method: as §1
# [8] = * estimated value, ± standard error of the mean
molecule,measurement,setting,value
"CO[C@@H]1O[C@H](CO)[C@@H](O[C@@H]2O[C@H](CO)[C@H](O)[C@H](O[C@]3(C(=O)O)C[C@H](O)[C@@H](NC(C)=O)[C@H]([C@H](O)[C@H](O)CO)O3)[C@H]2O)[C@H](O[C@@H]2O[C@@H](C)[C@@H](O)[C@@H](O)[C@@H]2O)[C@H]1NC(C)=O [3′ sialyl Lewis X methyl glycoside, Neu5Ac-α-2-3-Gal-β-1-4-[Fuc-a-1-3]-GlcNAc-β-OMe]","Activity, RgNanH",RgNanH [1],+
same,"Activity, AkmNan0625 and AkmNan1835",[2],+
"CC(=O)N[C@H]1[C@H]([C@H](O)[C@H](O)CO)O[C@@](O[C@H]2[C@@H](O)[C@@H](CO)O[C@@H](O[C@H]3[C@H](O[C@@H]4O[C@@H](C)[C@@H](O)[C@@H](O)[C@@H]4O)[C@@H](O)C(O)O[C@@H]3CO)[C@@H]2O)(C(=O)O)C[C@@H]1O (stereo partly drawn) [3′ sialyl-3-fucosyllactose, Neu5Ac-α-2-3-Gal-β1-4-[Fuc-α-1-3]-Glc]","Activity, RgNanH",RgNanH [1],+
same,"Activity, AkmNan0625 and AkmNan1835",[2],+
"CC(=O)NC1C(O)CC(OC2C(O)C(O)OC(CO)C2O)(C(=O)O)OC1C(O)C(O)CO (stereo not drawn) [3′ sialylgalactose, Neu5Ac-α-2-3-Gal]","Activity, RgNanH",RgNanH [1],+
same,"Activity, AkmNan0625 and AkmNan1835",[2],+
"CC(=O)N[C@H]1[C@H]([C@H](O)[C@H](O)CO)O[C@@](O[C@H]2[C@@H](O)[C@@H](CO)O[C@@H](O[C@H]3[C@H](O[C@@H]4O[C@@H](C)[C@@H](O)[C@@H](O)[C@@H]4O)[C@@H](NC(C)=O)C(O)O[C@@H]3CO)[C@@H]2O)(C(=O)O)C[C@@H]1O (stereo partly drawn) [3′-sialyl Lewis X, Neu5Ac-α-2-3-Gal-β-1-4-[Fuc-a1-3]-GlcNAc]","Activity, RgNanH",RgNanH [1],+
same,"Activity, AkmNan0625 and AkmNan1835",[2],+
"CC(=O)N[C@H]1[C@H]([C@H](O)[C@H](O)CO)O[C@@](O[C@H]2[C@@H](O)[C@@H](CO)O[C@@H](O[C@H]3[C@H](O)[C@@H](O)C(O)O[C@@H]3CO)[C@@H]2O)(C(=O)O)C[C@@H]1O (stereo partly drawn) [3′SL, Neu5Ac-α-2-3-Gal-β-1-4-Glc]","Activity, RgNanH",RgNanH [1],+
same,Activity of AkmNan0625 and AkmNan1835 on substrate (in words),[2],active
same,"Activity, AkmNan0625 and AkmNan1835",[2],+
same,KM,RgNanH [3],below detection limit
same,Km,RgNanH [3],< 100 µM
same,Vmax,RgNanH [3],0.0566 ± 0.0057 µM/min
same,kcat,RgNanH [3],25.7 min⁻¹ and 25.70 min⁻¹
same,Ki,RgNanH [3],0.76 mM
same,KM,[4]; [8],below detection limit
same,Km,[4]; [8],< 100 µM
same,kcat/KM,[4]; ** calculated using estimated value,>>2.57 × 10^2** min^−1 · mM^−1
"CC(=O)N[C@H]1[C@H]([C@H](O)[C@H](O)CO)O[C@@](Oc2ccc3c(C)cc(=O)oc3c2)(C(=O)O)C[C@@H]1O [4MU-Neu5Ac, 2′-(4-Methylumbelliferyl)-α-D-N-acetylneuraminic acid]",Km,RgNanH [3],590 µM
same,kcat,RgNanH [3],6210 min⁻¹
same,Ki,RgNanH [3],2.37 mM
"CC(=O)N[C@H]1[C@H]([C@H](O)[C@H](O)CO)OC(OC[C@H]2OC(O)[C@H](O)[C@@H](O)[C@H]2O)(C(=O)O)C[C@@H]1O (stereo partly drawn) [6′ sialylgalactose, Neu5Ac-α-2-6-Gal]","Activity, AkmNan0625 and AkmNan1835",[2],+
OC[C@H]1O[C@@H](O[C@H]2[C@H](O)[C@@H](O)C(O)O[C@@H]2CO)[C@H](O)[C@@H](O)[C@H]1O (some centres unmarked) [Lactose],Inhibition of RgNanH (in words),RgNanH [5],not inhibited
"CC(=O)NC1C(O)C=C(C(=O)O)OC1C(O)C(O)CO [Neu5Ac2en, 2-deoxy-2,3-didehydro-D-N-acetylneuraminic acid]",IC50,"RgNanH [5]; IC50, Table 2, substrate 4MU-Neu5Ac 0.51 mM, RgNanH 1.00 nM",1.41 mM
same,IC50,"RgNanH [5]; IC50, substrate 4MU-Neu5Ac",1.4 mM
"CC(=O)N[C@H]1[C@H]([C@H](O)[C@H](O)CO)OC(O)(C(=O)O)C[C@@H]1O (some centres unmarked) [Neu5Ac, N-Acetylneuraminic acid]",Inhibition of RgNanH (in words),RgNanH [5],not inhibited
"CC(=O)NC1C(O)CC(Oc2ccc([N+](=O)[O-])cc2)(C(=O)O)OC1C(O)C(O)CO [PNP-Neu5Ac, 2-O-(p-Nitrophenyl)-α-D-N-acetylneuraminic acid]",KM,RgNanH [3],high
same,Km,RgNanH [3],> 25000 µM
same,kcat,RgNanH [3],<152** min^−1
"CC(=O)N[C@H]1[C@H]([C@H](O)[C@H](O)CO)O[C@@](Oc2ccc([N+](=O)[O-])cc2)(C(=O)O)C[C@@H]1O [PNP-Neu5Ac, 2-O-(p-Nitrophenyl)-α-D-N-acetylneuraminic acid]",KM,[4]; [8],high KM
CC(=O)N[C@H]1NC[C@H](C(=O)O)[C@H](O)[C@@H]1O [Siastatin B],IC50,"RgNanH [5]; Table 2, substrate 4MU-Neu5Ac 0.51 mM, RgNanH 1.00 nM",0.00487 mM
"CC(=O)N[C@H]1[C@H]([C@H](O)[C@H](O)CO)OC(C(=O)O)=C[C@@H]1N=C(N)N [Zanamivir, 4-guanidino-Neu5Ac2en]",IC50,RgNanH [5]; substrate 4MU-Neu5Ac,11.9 mM
Neu5Ac-α-2-3-Gal-β-1-4-GlcNAc [3′-α-sialyl-N-acetyllactosamine],"Activity, RgNanH",RgNanH [1],+
same,"Activity, AkmNan0625 and AkmNan1835",[2],+
Neu5Ac-α-2-6-Gal-β1-4-Glc [6′SL],Enzymatic activity of RgNanH on substrate (in words),RgNanH [1],no enzymatic activity
same,Activity of AkmNan0625 and AkmNan1835 on substrate (in words),[2],active
same,"Activity, AkmNan0625 and AkmNan1835",[2],+
Neu5Ac-α-2-6-Gal-β-1-4-GlcNAc [6′-α-sialyl-N-acetyllactosamine],"Activity, AkmNan0625 and AkmNan1835",[2],+
asialo-fetuin,"Activity of RgNanH against glycoprotein (2,7-anhydro-Neu5Ac peaks by 1H NMR)",RgNanH [6],no change
B1,Km,[7],0.59 ± 0.17 mM
same,Vmax,[7],1.37 µM/min
same,kcat,[7],104 s⁻¹
same,kcat/Km,[7],175000 M⁻¹ s⁻¹
